Experimental data taken from ChEMBL document CHEMBL1201862, “PubChem BioAssay data set” (2004).
Calls of active or inactive are those of the source.

How the values were obtained:
[1] = target: T1, Oxysterols receptor LXR-beta (Homo sapiens, UniProt P55055); assay: LXR agonists, Gal4 luciferase reporter, dose response, counter-screen for ssDAF-12 agonist project, cell-based, luminescence, HEK293, S. stercoralis campaign (AID 720737); assay type: functional; conditions: read-out: IC50 (the source's name)
T1 sequence (P55055 whole entry): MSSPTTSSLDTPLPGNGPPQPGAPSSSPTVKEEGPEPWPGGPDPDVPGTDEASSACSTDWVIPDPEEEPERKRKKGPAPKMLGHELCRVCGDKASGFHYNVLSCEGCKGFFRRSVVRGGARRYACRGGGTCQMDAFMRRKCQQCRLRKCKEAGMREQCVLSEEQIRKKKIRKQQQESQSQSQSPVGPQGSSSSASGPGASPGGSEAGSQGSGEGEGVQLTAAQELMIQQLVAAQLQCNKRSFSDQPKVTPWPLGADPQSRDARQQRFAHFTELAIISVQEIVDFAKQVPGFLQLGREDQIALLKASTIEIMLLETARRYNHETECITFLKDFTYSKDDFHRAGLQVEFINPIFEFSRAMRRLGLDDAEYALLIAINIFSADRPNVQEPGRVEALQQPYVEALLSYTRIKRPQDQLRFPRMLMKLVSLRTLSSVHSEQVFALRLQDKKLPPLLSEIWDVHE

[2] = Luminescence-based cell-based high throughput dose response assay to identify activators of the DAF-12 from the parasite S. stercoralis (ssDAF-12).; assay type: functional
[3] = cytotoxicity toward HT-29 cells – cell-based, CellTiter-Glo luminescence, IC50, dose response (AID 1117330); assay type: functional
[4] = Reduced DLD-1 viability, concentration-response, CellTiter-Glo luminescence (AID 1117352); assay type: functional
[5] = HCT116 cell viability decrease, GSK3B pretreatment – CellTiter-Glo, IC50, dose response (AID 1117339); assay type: functional; conditions: HCT-116
[6] = cytotoxicity toward HCT116 cells – cell-based, CellTiter-Glo luminescence, IC50, dose response (AID 1117332); assay type: functional; conditions: HCT-116
[7] = CellTiter-Glo luminescence survival assay, SW480 colon tumor line, concentration-response curve, half-maximal inhibitory concentration (AID 1117338); assay type: functional
[8] = cytotoxicity toward Colo320 cells – cell-based, CellTiter-Glo luminescence, IC50, dose response (AID 1117334); assay type: functional; conditions: COLO 320
[9] = SNU-C1 cell viability reduction, dose response, CellTiter-Glo luminescence (AID 1117323); assay type: functional, cell-based
[10] = RKO cell viability reduction, dose response, CellTiter-Glo luminescence (AID 1117322); assay type: functional
[11] = target: T1, Oxysterols receptor LXR-beta; assay type: functional, cell-based
[12] = OVCAR-3 cell viability loss – plate reader, dry powder samples, PAX8 inhibitor project, dose response (AID 743044); assay type: functional, cell-based
[13] = IGROV1 cell killing – plate reader, dry powder samples, PAX8 inhibitor project, dose response (AID 743043); assay type: functional, cell-based; conditions: IGROV-1
[14] = A2780 cell killing – plate reader, dry powder samples, cytotoxicity control, dose response (AID 743046); assay type: functional, cell-based
[15] = toxicity toward immortalized ovarian surface epithelium – cell-based, plate reader, dry powder samples, cytotoxicity control for PAX8 inhibitor project, dose response (AID 743045); assay type: functional
[16] = general cell-killing toxicity readout – plate reader, dry powder samples, cytotoxicity control for PAX8 inhibitor project, dose response (AID 743021); assay type: functional, cell-based
[17] = P. falciparum Dd2 growth inhibitors, dose response, SYBR Green, cherry-picked samples (AID 1159567); assay type: functional, cell-based
Paired box protein Pax-8 = Paired box protein Pax-8 (Homo sapiens, UniProt Q06710); assay: PAX8 transcriptional activity inhibition in RMG-I – RMG-I cells, luciferase, cherry-pick, dose response (AID 687027); assay type: functional, cell-based;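 note: luciferase reporter driven by Pax8 target thyroperoxidase promoter measured by SteadyGlo luminescence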
Paired box protein Pax-8, sequence (Q06710 whole entry): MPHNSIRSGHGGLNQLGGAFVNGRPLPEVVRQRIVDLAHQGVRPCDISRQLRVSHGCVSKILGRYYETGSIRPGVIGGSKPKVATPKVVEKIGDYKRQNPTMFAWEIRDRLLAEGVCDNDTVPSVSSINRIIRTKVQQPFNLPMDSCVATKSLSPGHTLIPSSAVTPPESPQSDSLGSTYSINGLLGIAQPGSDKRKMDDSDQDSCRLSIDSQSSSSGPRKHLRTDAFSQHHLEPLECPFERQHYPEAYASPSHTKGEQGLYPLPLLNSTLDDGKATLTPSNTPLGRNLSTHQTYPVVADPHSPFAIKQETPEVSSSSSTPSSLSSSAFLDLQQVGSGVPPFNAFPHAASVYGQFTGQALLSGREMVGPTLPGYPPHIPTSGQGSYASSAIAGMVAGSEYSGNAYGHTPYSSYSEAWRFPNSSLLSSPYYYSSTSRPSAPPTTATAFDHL

[18] = OVCAR8 cell viability loss – plate reader, dry powder samples, PAX8 project, dose response (AID 743197); assay type: functional, cell-based; conditions: OVCAR-8
[19] = toxicity to human hepatoma HepG2 cells – cell-based, cherry-picked samples, cytotoxicity control, dose response (AID 1159577); assay type: functional
[20] = target: T2, Potassium channel subfamily K member 9 (Homo sapiens, UniProt Q9NPC2); assay: TASK3 channel blockers, electrophysiology – cell-based, automated electrophysiology, selectivity assay for TASK1 (KCNK3) inhibitor project, SAR follow-up (AID 652210); assay type: functional
T2 sequence (Q9NPC2 whole entry, the tested form may be a part): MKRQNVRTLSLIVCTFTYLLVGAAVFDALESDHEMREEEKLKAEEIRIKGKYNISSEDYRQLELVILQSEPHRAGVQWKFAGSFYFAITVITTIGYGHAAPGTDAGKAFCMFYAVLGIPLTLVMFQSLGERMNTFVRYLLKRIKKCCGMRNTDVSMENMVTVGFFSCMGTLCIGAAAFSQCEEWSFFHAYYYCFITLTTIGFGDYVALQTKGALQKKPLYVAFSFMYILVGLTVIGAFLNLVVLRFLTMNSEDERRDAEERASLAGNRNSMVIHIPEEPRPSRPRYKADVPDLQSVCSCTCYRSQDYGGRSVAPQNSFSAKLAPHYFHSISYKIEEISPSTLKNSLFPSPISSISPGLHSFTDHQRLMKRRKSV

[21] = target: Potassium channel subfamily K member 3 (Rattus norvegicus, UniProt O54912); assay: SAR analysis for the identification of selective inhibitors of the two-pore domain potassium channel TASK1(KCNK3):Automated Electrophysiology.; assay type: functional
Potassium channel subfamily K member 3, sequence (O54912 whole entry, the tested form may be a part): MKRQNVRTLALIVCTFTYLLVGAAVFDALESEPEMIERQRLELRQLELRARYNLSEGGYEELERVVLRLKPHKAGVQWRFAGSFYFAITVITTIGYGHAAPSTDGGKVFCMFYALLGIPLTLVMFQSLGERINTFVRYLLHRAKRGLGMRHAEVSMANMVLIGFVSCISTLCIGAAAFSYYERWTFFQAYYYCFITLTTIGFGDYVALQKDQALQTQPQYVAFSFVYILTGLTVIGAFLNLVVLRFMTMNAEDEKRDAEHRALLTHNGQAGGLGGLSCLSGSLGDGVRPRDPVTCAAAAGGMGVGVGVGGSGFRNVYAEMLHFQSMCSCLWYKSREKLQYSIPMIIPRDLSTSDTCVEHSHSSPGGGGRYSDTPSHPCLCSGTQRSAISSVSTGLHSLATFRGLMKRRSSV

[22] = target: T2, Potassium channel subfamily K member 9; assay: KCNK9 flux blockade, concentration-response – cell-based, FluxOR thallium flux, selectivity assay for TASK1 inhibitor project, SAR follow-up (AID 652211); assay type: functional;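 note: potency is for inhibitors of the channel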
[23] = Late stage assay provider results from the probe development effort to identify inhibitors of the Plasmodium falciparum M18 Aspartyl Aminopeptidase (M18AAP): radiolabel-based cell-based dose response assay to identify compounds that inhibit P. falciparum growth in RBCs, Set 2..; assay type: functional
[24] = target: RNA-editing ligase 1, mitochondrial (Trypanosoma brucei brucei, UniProt P86926); assay: inhibition of trypanosome RNA editing ligase – biochemical, fluorescence, Trypanosoma brucei, dose response (AID 1117295); assay type: functional
RNA-editing ligase 1, mitochondrial, sequence (P86926 whole entry): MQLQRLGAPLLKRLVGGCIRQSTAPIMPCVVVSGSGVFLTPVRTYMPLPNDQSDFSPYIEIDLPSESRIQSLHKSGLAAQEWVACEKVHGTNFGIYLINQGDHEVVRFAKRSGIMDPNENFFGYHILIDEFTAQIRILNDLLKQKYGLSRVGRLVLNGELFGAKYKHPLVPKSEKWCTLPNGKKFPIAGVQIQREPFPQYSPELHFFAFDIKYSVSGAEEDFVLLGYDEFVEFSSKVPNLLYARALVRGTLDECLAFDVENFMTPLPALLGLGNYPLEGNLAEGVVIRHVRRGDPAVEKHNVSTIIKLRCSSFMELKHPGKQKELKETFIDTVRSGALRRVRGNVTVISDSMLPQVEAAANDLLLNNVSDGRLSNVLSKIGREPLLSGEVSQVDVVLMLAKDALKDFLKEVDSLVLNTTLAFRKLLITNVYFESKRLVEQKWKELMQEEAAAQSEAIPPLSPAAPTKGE

[25] = target: G-protein coupled receptor 183 (Homo sapiens, UniProt P32249); assay: SAR confirmation of small molecule antagonists of the EBI2 receptor via a luminescent beta-arrestin assa.; assay type: functional
G-protein coupled receptor 183, sequence (P32249 whole entry): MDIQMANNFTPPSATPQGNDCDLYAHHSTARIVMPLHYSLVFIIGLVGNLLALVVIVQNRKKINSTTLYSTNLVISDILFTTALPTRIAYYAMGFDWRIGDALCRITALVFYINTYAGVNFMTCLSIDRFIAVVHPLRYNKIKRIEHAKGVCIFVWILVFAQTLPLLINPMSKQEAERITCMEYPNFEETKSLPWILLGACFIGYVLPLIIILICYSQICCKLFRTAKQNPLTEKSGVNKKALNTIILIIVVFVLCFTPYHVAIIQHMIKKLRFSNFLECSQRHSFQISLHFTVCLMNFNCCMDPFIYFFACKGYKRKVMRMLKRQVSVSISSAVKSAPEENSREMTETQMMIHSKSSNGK

[26] = NIH3T3 cell viability loss – ATP luminescence, mouse fibroblasts, counter-screen, dose response (AID 2010); assay type: functional, cell-based;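 note: cells exposed to compound for about 90 hours before reading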
[27] = target: Heat shock protein HSP 90-alpha (Homo sapiens, UniProt P07900); assay: Luminescence-based dose response biochemical high throughput screening assay for inhibitors of the Heat Shock Protein 90 (HSP90). [Related pubchem assays: 1831 (Summary AID.), 1846 (Confirmation screen.), 1789 (Primary screen.)]
[28] = Trypanosoma cruzi growth suppression in host cells – NIH3T3 host cells, beta-gal luminescence, confirmation (AID 2044); assay type: functional, cell-based;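 note: intracellular parasites grown in NIH/3T3 mouse fibroblasts as host cells; luminescent beta-galactosidase reporter signal from transgenic T. cruzi replicating inside host cells; inhibitors lower the luminescence signal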

## C[C@@H](c1ccccc1)N1C[C@@H](COCc2ccccc2)Oc2cc(N3CCC[C@H]3C(N)=O)ccc2S1(=O)=O
[1]
  EC50: > 67.5 µM (inactive)
[2]
  IC50: > 67.5 µM (inactive)

## C/C(=N\O)[C@@H](C)NCC(C)(C)CN[C@H](C)/C(C)=N/O
[3]
  IC50: > 20 µM (inactive)
[4]
  IC50: > 20 µM (inactive)
[5]
  IC50: > 20 µM (inactive)
[6]
  IC50: > 20 µM (inactive)
[7]
  IC50: > 20 µM (inactive)
[8]
  IC50: > 20 µM (inactive)
[9]
  IC50: > 20 µM (inactive)
[10]
  IC50: > 20 µM (inactive)

## COc1cccc(-c2nc3n(n2)CCc2ccccc2-3)c1
[11]
  EC50: > 67.5 µM (inactive)
cells
  EC50: > 67.5 µM (inactive)

## COc1ccc(C#Cc2ccc([C@H]3[C@@H](CO)N4CCCCN(C(=O)Nc5cccc(F)c5)C[C@H]34)cc2)cc1
[12]
  AC50: 10 µM (active)
[13]
  AC50: 21.1 µM (active)
[14]
  AC50: 12.2 µM (active)
[15]
  AC50: 32.3 µM (active)
[16]
  AC50: 32.1 µM (active)
[17]
  AC50: 1.28 µM (active)
Paired box protein Pax-8
  AC50: 10.9 µM (active)
[18]
  AC50: > 70 µM (inactive)
[19]
  AC50: 7.31 µM (active)

## COc1ccccc1C(=O)Nc1cccc(NC(=O)c2cccc(C)c2)c1
[20]
  IC50: 0.48 µM (active)
[21]
  IC50: 0.012 µM (active)
[22]
  IC50: 0.26 µM (active)

## O=c1ccn(CCNc2c3ccccc3nc3ccccc23)cc1OCc1ccccc1
[23]
  IC50: 4.7 µM (active)

## COC(=O)C1=C(C)N(Cc2ccccc2C(F)(F)F)C(NCc2ccc(OC)cc2)=NC1c1ccccc1 (stereo not given)
[24]
  IC50: > 96.6 µM (inactive)

## O=C(/C=C/c1ccc(F)cc1)N1CCN(S(=O)(=O)c2cccc3ccccc23)CC1
[25]
  IC50: 0.0497 µM (active)

## CCc1ccc(Nc2n[n+](-c3ccccc3)c(-c3ccc(N(CC)CC)cc3)s2)cc1
[26]
  EC50: > 60 µM (not active)
[27]
  IC50: 5.48 µM (active)
[28]
  EC50: 0.408 µM (active)
